Results from paper PMC9227765 (Viruses, 2022).
Read-outs that look alike come from different tables or passages of the source.

Assays:
EV-A71 H strain [1] = experiment: CPE protection assay, EV-A71 H strain (CellTiter-Glo); format: cell-based; details: Enterovirus A, 100× TCID50, 72 h.p.i., read-out: EC50 against EV-A71 virus
[2] = Cytotoxicity, CellTiter-Glo cell viability, RD cells; format: cell-based, Human; details: human, read-out: half-cytotoxic concentration (CC50)
[3] = Cytotoxicity, CellTiter-Glo cell viability, Vero cells; format: cell-based; details: African green monkey, read-out: half-cytotoxic concentration (CC50)
[4] = Cytotoxicity, CellTiter-Glo cell viability, Huh7 cells; format: cell-based; details: human, read-out: half-cytotoxic concentration (CC50)
EV-A71 AH08/06 strain = experiment: CPE protection assay, EV-A71 clinical isolate AH08/06; format: cell-based; details: Enterovirus A, EVA71, Huh-7; EV-A71 AH08/06, Huh7
[5] = test system: CV-A6 TW-2007-00141 strain; experiment: CPE protection assay, CV-A6; format: cell-based, coxsackievirus A6
EV-A71 virus [6] = experiment: Viral RNA reduction assay (qRT-PCR) in RD cells; format: cell-based, enterovirus A71; details: MOI 0.1, 30 h.p.i.
EV-A71 virus [7] = experiment: Virus particle yield in supernatant (TCID50); format: cell-based, enterovirus A71; details: RD cells, MOI 0.1, supernatant, 30 h.p.i.
EV-A71 virus VP1 protein [8] = experiment: Immunofluorescence assay of VP1; format: cell-based, enterovirus A71; details: MOI 1, 16 h.p.i.
EV-A71 virus VP1 protein [9] = experiment: Western blot of VP1; format: cell-based, enterovirus A71; details: RD cells, 24 h; dose-dependent; EIDD-1931 10 to 0.63 μM, EIDD-2801 100 to 6.3 μM
EV-A71 H strain [10] = experiment: Time-of-drug-addition assay (qRT-PCR); format: cell-based, enterovirus A71; details: RD cells, 10 μM, MOI 0.01, 30 h.p.i.
EV-A71 virus (H strain) [11] = experiment: Lethal EV-A71 challenge of 1-day-old ICR suckling mice: survival and body weight; format: in vivo
EV-A71 virus (H strain) [12] = experiment: Viral RNA loads in tissues of EV-A71-infected suckling mice (qRT-PCR); format: in vivo; details: 200 mg/kg i.p. for 4 consecutive days
RD cells = experiment: Cytotoxicity, CellTiter-Glo cell viability, RD cells; format: cell-based, Human
Vero cells = experiment: Cytotoxicity, CellTiter-Glo cell viability, Vero cells; format: cell-based
Huh7 cells = experiment: Cytotoxicity, CellTiter-Glo cell viability, Huh7 cells; format: cell-based
[13] = test system: EV-D68 STL-2014–12 strain; experiment: CPE protection assay, EV-D68; format: cell-based; details: Enterovirus D, EVD68, EV-D68 STL-2014–12, RD
CV-A16 190-D1 strain = experiment: CPE protection assay, CV-A16; format: cell-based, coxsackievirus A16; details: Enterovirus A, CVA16, CV-A16 190-D1, RD
CV-B3 Nancy strain = experiment: CPE protection assay, CV-B3; format: cell-based, Coxsackievirus B3; details: Enterovirus B, CVB3, CV-B3 Nancy, RD
[14] = in vivo, po, 800 mg; cited from earlier work
EV-A71 = test system: EV-A71; set-up: method as in earlier work; details: cited from earlier work
[15] = Enterovirus A, CVA6, CV-A6 TW-2007-00141, RD
[16] = 66.6 mg/kg (66.67 printed for EIDD-2801) i.p. once a day for 7 days, until 21 d.p.i.
[17] = 200 mg/kg i.p. once a day for 7 days, observed until 21 d.p.i.

SMILES	EC50 (EV-A71 H strain [1]; EVA71, Huh-7, Huh7 cells) [µM]	EC50 (EV-A71 H strain [1]; EVA71, RD cells) [µM]	EC50 (EV-A71 H strain [1]; EVA71, Vero cells) [µM]	CC50 at 72 h [2] [µM]	CC50 at 72 h [3] [µM]	CC50 at 72 h [4] [µM]	EC50 (EV-A71 AH08/06 strain) [µM]	EC50 [5, 15] [µM]	replication of viral RNA (qRT-PCR) (EV-A71 virus [6])	propagation of infectious viral particles (EV-A71 virus [7])	expression levels of viral VP1 proteins (Western blot) (EV-A71 virus VP1 protein [9])	survival (EV-A71 virus (H strain) [11]; [16])	survival (EV-A71 virus (H strain) [11]; [17])	viral RNA loads in brain, heart, intestine, liver, limb muscle and lung (EV-A71 virus (H strain) [12])	other results
O=c1[nH]c(=NO)ccn1[C@@H]1O[C@H](CO)[C@@H](O)[C@H]1O [EIDD-1931, β-D-N^4-hydroxycytidine]	4.43 ± 0.33	5.13 ± 0.56	7.04 ± 0.38	80.47 ± 0.02	14.1 ± 0.43	34.09 ± 0.06	2.79 ± 0.89	< 20	inhibited the replication of viral RNA in a dose-dependent manner	inhibited	significantly attenuated	all survived	all survived	significantly reduced	EC50 ([5]; CV-A6 TW-2007-00141, RD): 15.7 ± 0.38 µM; expression of EV-A71 VP1 protein (immunofluorescence) (EV-A71 virus VP1 protein [8]; 10 µM): almost completely blocked; EV-A71 viral RNA production, drug added at stages III and IV (post-entry) (EV-A71 H strain [10]): inhibited; survival protection (EV-A71 virus (H strain) [11]; 22.2 mg/kg i.p. once a day for 7 days, until 21 d.p.i.): 60%; body weight (EV-A71 virus (H strain) [11]; 66.6 mg/kg i.p. for 7 days, until 21 d.p.i.): good weight maintenance and growth; body weight (EV-A71 virus (H strain) [11]; 200 mg/kg i.p. for 7 days, until 21 d.p.i.): good weight maintenance and growth; time within which the mice died (EV-A71 virus (H strain) [11]; low-dose group 7.41 mg/kg i.p. once a day for 7 days): ≤ 12 days
CC(C)C(=O)OC[C@H]1O[C@@H](n2ccc(NO)nc2=O)[C@H](O)[C@@H]1O [EIDD-2801, molnupiravir]	35.6 ± 0.47	70.1 ± 4.4	88.5 ± 3.18	> 100	> 100	> 100	30.3 ± 0.55	> 100	inhibited the replication of viral RNA in a dose-dependent manner	inhibited	significantly attenuated	67%	100%	significantly reduced	half-cytotoxic concentration (CC50) (RD cells): no significant cytotoxicity; half-cytotoxic concentration (CC50) (Vero cells): no significant cytotoxicity; half-cytotoxic concentration (CC50) (Huh7 cells): no significant cytotoxicity; EC50 [13]: 86.2 ± 9.17 µM; EC50 (CV-A16 190-D1 strain): 44.9 ± 4.23 µM; EC50 (CV-B3 Nancy strain): 87.2 ± 10.8 µM; expression of EV-A71 VP1 protein (immunofluorescence) (EV-A71 virus VP1 protein [8]; 100 µM): partly inhibited; Cmax [14]: 16.1 µM
C#C[C@@]1(O)[C@H](O)[C@@H](CO)O[C@H]1n1ccc2c(N)ncnc21 [NITD008, 7-Deaza-2′-C-acetylene-adenosine]	–	–	–	–	–	–	–	–	–	–	–	–	–	–	anti-EV-A71 activity (EV-A71): potent anti-EV-A71 activity
